Results reported in article PMC12395308 (ACS Central Science, 2025).

Key:
[1] = Human liver microsomal stability analysis
[2] = Bioconversion of prodrugs in plasma, ex vivo (human); details: 200 μg/mL
[3] = Bioconversion of prodrugs in plasma, ex vivo (mice); details: 200 μg/mL
[4] = In vivo plasma exposure after a single oral dose (RACE-PK); details: single oral dose 10 mg/kg
[5] = Comparative plasma exposure after a single oral dose at three incremental dose levels; details: for concentration at 2 h / concentration at 6 h: Balb/C, mouse, plasma, po
[6] = Complete pharmacokinetic analysis after a single oral dose
[7] = Derivatization-based quantification of hydrazine in mice plasma using LC-MS
[8] = Chemical stability in neat DMSO (UV spectrophotometer); details: post 24 h of incubation
[9] = Intestinal homogenate conversion assay; format: in vitro ADME, mice; details: 50 μg/mL
[10] = Mouse liver homogenate conversion assay; format: in vitro ADME
[11] = Comparative pharmacokinetic analysis after a single intravenous dose
[12] = Aqueous solubility in Tris HCl buffer (pH 7.4), shake flask method; details: Tris HCl buffer, 37 °C, pH 7.4, aqueous buffer, thermodynamic from solid
[13] = test system: pyridoxal and pyridoxal-5′-phosphate; experiment: Quantification of pyridoxal and pyridoxal-5-phosphate in mice liver; details: repeat-dose study; INH 90 mg/kg, 1d 117.5 mg/kg
[14] = Aqueous stability in acidic and basic buffer (HPLC); details: basic buffer, post 24 h of incubation
[15] = Stomach homogenate conversion assay; format: in vitro ADME, mice; details: 50 μg/mL
[16] = In vivo plasma exposure after repetitive single oral dosing for 10 consecutive days
[17] = Lipophilicity (logD) by shake flask method
[18] = Balb/C, mouse, plasma, po, 10 mg/kg of INH (prodrugs at molar equivalent)
[19] = Balb/C, mouse, plasma, iv, 1 mg/kg

percentage of 1d/INH remaining after 2 h of incubation, human liver microsomes ([1]; 50 μM, 1 mg/mL microsomes, 1 mM NADPH): 77%
eAUC0–120m of 1d, human liver microsomes ([1]; 2 h incubation): 80,176 ng·h/mL
% of prodrug remaining at 20 h, human plasma ([2]; 37 °C, ex vivo): 40.1%
eAUC20m–20h in human plasma, prodrug ([2]; 20 h ex vivo incubation): 1196 ± 308 ng·h/mL
% of prodrug remaining at 20 h, mice plasma ([3]; 37 °C, ex vivo): 23.8%
eAUC20m–20h in mice plasma, prodrug ([3]; 20 h ex vivo incubation): 987 ± 154 ng·h/mL
plasma concentration of AcINH at 20 min [4]: BLQ
concentration at 2 h ([5]; 1 mg/kg): 332 ng/mL
concentration at 6 h ([5]; 1 mg/kg): 146 ng/mL
concentration at 2 h ([5]; 3 mg/kg): 578 ng/mL
concentration at 6 h ([5]; 3 mg/kg): 151 ng/mL
concentration at 2 h ([5]; 10 mg/kg): 2030 ng/mL
concentration at 6 h ([5]; 10 mg/kg): 217 ng/mL
eAUC20m–6h (unchanged 1d) ([5]; single oral dose 1 mg/kg): 2916 ± 1005 ng·h/mL
eAUC20m–6h (unchanged 1d) ([5]; single oral dose 3 mg/kg): 5799 ± 858 ng·h/mL
eAUC20m–6h (unchanged 1d) ([5]; single oral dose 10 mg/kg): 20,138 ± 2821 ng·h/mL
concentration at 0.33 h [6, 18]: 18700 ng/mL
concentration at 1 h [6, 18]: 10400 ng/mL
concentration at 2 h [6, 18]: 4620 ng/mL
concentration at 4 h [6, 18]: 942 ng/mL
concentration at 6 h [6, 18]: 347 ng/mL
concentration at 24 h [6, 18]: 152 ng/mL
plasma concentration of released AcINH (mean) ([6]; single oral dose, 0.33 h): BLQ
plasma concentration of released AcINH (mean) ([6]; single oral dose, 1 h): BLQ
plasma concentration of released AcINH (mean) ([6]; single oral dose, 2 h): BLQ
plasma concentration of released AcINH (mean) ([6]; single oral dose, 4 h): BLQ
plasma concentration of released INA (mean) ([6]; single oral dose, 4 h): BLQ
plasma concentration of free INH (mean) ([6]; single oral dose, 6 h): BLQ
plasma concentration of released AcINH (mean) ([6]; single oral dose, 6 h): BLQ
plasma concentration of released INA (mean) ([6]; single oral dose, 6 h): BLQ
plasma concentration of free INH (mean) ([6]; single oral dose, 24 h): BLQ
plasma concentration of released AcINH (mean) ([6]; single oral dose, 24 h): BLQ
plasma concentration of released INA (mean) ([6]; single oral dose, 24 h): BLQ
AUC5m–24h, released AcINH ([6]; single oral dose, INH 10 mg/kg or molar equivalent): BLQ
Vd, unchanged prodrug ([6]; single oral dose, molar equivalent of 10 mg/kg INH): 1.121 ± 0.345 L/kg
plasma level of AcHz formed in vivo ([6]; single oral dose, all time points 0.083–24 h): BLQ
plasma concentration of in vivo released Hz ([7]; post 24hrs of 6th dose, repetitive oral dosing for six days): BLQ
plasma level of released Hz ([7]; single oral dose (10 mg/kg INH or equivalent), all time points 0.083–24 h): BLQ
chemical stability, DMSO: percentage of parent remaining [8]: 100.0%
eAUC0–20h in intestinal homogenate, prodrug ([9]; 20 h): 728,889 ng·h/mL
percentage of prodrug remaining after 20 h of incubation, intestine homogenate ([9]; ex vivo): 87%
percentage of 1d remaining after 2 h of incubation, mouse liver homogenate ([10]; 37 °C): 27%
eAUC5–120m of 1d, mouse liver homogenate ([10]; 2 h incubation): 261,525 ng·h/mL
AUC [11, 19]: 18 ± 1 ng·h/mL
Cmax [11, 19]: 90 ± 5 ng/mL
Tmax [11, 19]: 4.8 min
Vd [11, 19]: 21 L/kg
clearance [11, 19]: 1780 mL/min/kg
concentration at 0.33 h [11, 19]: 53.6 ng/mL
plasma concentration of released AcINH (mean) ([11]; single IV dose, 0.33 h): BLQ
plasma concentration of released INA (mean) ([11]; single IV dose, 0.33 h): BLQ
plasma concentration of released AcINH (mean) ([11]; single IV dose, 1 h): BLQ
plasma concentration of released INA (mean) ([11]; single IV dose, 1 h): BLQ
plasma concentration of unchanged 1d (mean) ([11]; single IV dose, 1 h): BLQ
plasma concentration of released AcINH (mean) ([11]; single IV dose, 2 h): BLQ
plasma concentration of released INA (mean) ([11]; single IV dose, 2 h): BLQ
plasma concentration of unchanged 1d (mean) ([11]; single IV dose, 2 h): BLQ
plasma concentration of released AcINH (mean) ([11]; single IV dose, 4 h): BLQ
plasma concentration of released INA (mean) ([11]; single IV dose, 4 h): BLQ
plasma concentration of unchanged 1d (mean) ([11]; single IV dose, 4 h): BLQ
plasma concentration of released AcINH (mean) ([11]; single IV dose, 6 h): BLQ
plasma concentration of released INA (mean) ([11]; single IV dose, 6 h): BLQ
plasma concentration of unchanged 1d (mean) ([11]; single IV dose, 6 h): BLQ
plasma concentration of released AcINH (mean) ([11]; single IV dose, 8 h): BLQ
plasma concentration of released INA (mean) ([11]; single IV dose, 8 h): BLQ
plasma concentration of unchanged 1d (mean) ([11]; single IV dose, 8 h): BLQ
plasma concentration of released AcINH (mean) ([11]; single IV dose, 24 h): BLQ
plasma concentration of released INA (mean) ([11]; single IV dose, 24 h): BLQ
plasma concentration of unchanged 1d (mean) ([11]; single IV dose, 24 h): BLQ
AUC5m–24h, released AcINH ([11]; single IV dose, INH 1 mg/kg or molar equivalent): no AcINH was observed and BLQ
solubility at 24 h [12]: 18.6 mg/mL
liver tissue levels of pyridoxal and pyridoxal-5′-phosphate [13]: comparable
chemical stability, pH (7.6): percentage of parent remaining [14]: 100.0%
eAUC0–20h in stomach homogenate, prodrug ([15]; 20 h): 433,081 ng·h/mL
percentage of prodrug remaining after 20 h of incubation, stomach homogenate ([15]; ex vivo): 3%
eAUC20m–6h (AcHz) ([16]; 10th dose, oral, molar equivalent of 10 mg/kg INH): BLQ ^d
feed intake per cage ([16]; day 0, cage of n=3): 11 g
feed intake per cage ([16]; day 1, cage of n=3): 11.5 g
feed intake per cage ([16]; day 2, cage of n=3): 10.5 g
feed intake per cage ([16]; day 3, cage of n=3): 10 g
feed intake per cage ([16]; day 4, cage of n=3): 11 g
feed intake per cage ([16]; day 5, cage of n=3): 14.5 g
feed intake per cage ([16]; day 6, cage of n=3): 12 g
feed intake per cage ([16]; day 7, cage of n=3): 12 g
feed intake per cage ([16]; day 8, cage of n=3): 13.5 g
feed intake per cage ([16]; day 9, cage of n=3): 12.5 g
feed intake per cage ([16]; day 10, cage of n=3): 12.5 g
logD [17]: 0.2
SMILES: CC(C)OC(=O)NNC(=O)c1ccncc1.Cl [prodrug 1d]
plasma eAUC20m–120m (AcINH) ([4]; n=3, 10 mg/kg): BLQ and below the limit of quantification and BLQ ^d
